From patent US8889631B2, “Disruptors of early/recycling endosomes” (The University of Kansas, priority 2008, dated 2014)
“Also recorded” adds a separate entry of the source. Square brackets hold non-standard residues; d marks the D form. Peptide text beside a SMILES is read from it. * marks the point of attachment. Pentanoyl(5-NH-cholesteryl) = CC(C)CCC[C@@H](C)[C@H]1CC[C@H]2[C@@H]3CC=C4C[C@@H](NCCCCC(=O)*)CC[C@]4(C)[C@H]3CC[C@]12C; X1 = O=C(O)c1c(Cl)cc(C(=O)*)c(Cl)c1-c1c2cc(Cl)c(=O)c(Cl)c-2oc2c(Cl)c(O)c(Cl)cc12; Ahx = NCCCCCC(=O)O

Tests used:
Jurkat lymphocytes [1] = experiment: Toxicity of colchicine-cholesterylamine Compound 30 with or without Compound 1, DIC micrographs; format: cell-based, human; settings: 2 μM; 48 h
Description: FIGS. 11B-11E show DIC micrographs of Jurkat lymphocytes treated for 48 h with DMSO (FIG. 11B), Compound 1 (FIG. 11C), Compound 30 (FIG. 11D, and Compounds 1 and 30 (FIG. 11E).
The delivery system was studied with the anticancer agent colchicine being linked to the N-alkyl-3β-cholesterylamine via a disulfide, which compound is Compound 30 as shown in FIG. 11A. The delivery system utilized Compound 1 to release the anticancer agent colchicine from Compound 30. Colchicine was linked to an N-alkyl-3β-cholesterylamine via a disulfide linker to present a compound that is non-toxic to Jurkat lymphocytes at 200 nM. The cholesterylamine-PC4 peptide (Compound 1) is similarly non-toxic at 2 μM. However, the combination of these two compounds (Compound 1+Compound 30) is lethal to lymphocytes because Compound 1 enables release of the toxic colchicine derivative (FIGS. 11B-11E). […] It is thought that tumor-specific proteases capable of cleaving a peptide bond linking N-alkyl-3β-cholesterylamines to doxorubicin or other cancer agent will similarly enable the specific delivery of drugs to cognate cancer cells. Also, a cell type specific protease can be used for controlling delivery of the agent into the cytosol of those cell types.

Jurkat lymphocytes [2] = experiment: Cytotoxicity assay (CellTiter-Glo), Jurkat cells; format: cell-based, human; settings: 2 μM, 48 h at 37° C.
Description: Jurkat lymphocytes (7×10^4) in media (100 μL) were loaded on a 96-well plate. To these cells were added increasing concentrations of Compound 1 in DMSO (final [DMSO]=1%). After incubation for 48 h, cells from each well (10 μL) were transferred to an opaque 96-well plate containing PBS (170 μL per well) and treated with CellTiter-Glo reagent (20 μL, Promega) according to the Promega protocol provided with the reagent. After incubation at ambient temperature (22° C.) for 10 min, the luminescence of the samples was measured with a Packard Fusion microplate reader.

CHO cells [3] = experiment: Cytotoxicity assay (CellTiter-Glo), CHO cells; format: cell-based, Chinese hamster; settings: 8 μM, 48 h at 37° C.
Description: Trypsinized CHO cells (2×10^3) in media (100 μL) were loaded on a 96-well plate. After incubation for 36 h, the media was replaced with fresh media (100 μL) containing increasing concentrations of Compound 1 in DMSO (final [DMSO]=1%). After 48 h of incubation, the cells in each well were washed with PBS (2×100 μL) and detached by treatment with a solution of trypsin (50 μL, 5 min). The cell suspension (10 μL) was transferred to an opaque 96-well plate containing PBS (170 μL per well) and treated with CellTiter-Glo reagent (20 μL, Promega) according to the Promega protocol provided with the reagent. After incubation at ambient temperature (22° C.) for 10 min, the luminescence of the samples was measured with a Packard Fusion microplate reader.

CHO cells [4] = experiment: Release of fluorescent cargo from early/recycling endosomes, confocal microscopy, CHO cells; format: cell-based, Chinese hamster; settings: for release of green fluorescence of Compound 3 from early/recycling endosomes by the endosome disruptor: Compound 3 (5 μM) and Compounds 1, 2, or 5 (8 μM) for 24 h; for release of the fluorophore of the cargo compound when combined with Compound 1 or Compound 2: Compound 3 or Compound 4 (5 μM), disruptor 8 μM, 24 h
Description: (§1) FIG. 4A-4J show confocal fluorescence and DIC micrographs of living cells treated with fluorescent probes. FIGS. 4A-4F show CHO cells were treated with Compound 3 or Compound 4 (5 μM) and Compounds 1, 2, or 5 (8 μM) for 24 h. In FIG. 4F, [chloroquine]=5 μM. In FIGS. 4G-4J, Jurkat lymphocytes were treated with Compound 3 or Compound 4 (2.5 μM) and Compound 1 or Compound 5 (2 μM) for 12 h.
(§2) A Zeiss LSM 5 Pascal confocal laser-scanning microscope fitted with a Plan Apochromat objective (63×) was employed. Fluorescein and Alexa Fluor-488 were excited with a 488 nm Argon ion laser (25 mW, 1% laser power) and emitted photons were collected through 505 nm LP filter. Excitation of 6-Hex, Texas Red, and DiI employed a 543 nm HeNe laser and emitted photons were collected through a 560 nm LP filter.

Jurkat lymphocytes [5] = experiment: Release of fluorescent cargo from early/recycling endosomes, confocal microscopy, Jurkat lymphocytes; format: cell-based, human; settings: for release of green fluorescence of Compound 3 from early/recycling endosomes by the endosome disruptor: Compound 3 (2.5 μM) and disruptor (2 μM) for 12 h; for release of the fluorophore of the cargo compound when combined with Compound 1: Compound 3 or Compound 4 (2.5 μM), Compound 1 (2 μM), 12 h
Description: as §1
Jurkat cells were treated with green fluorescent Compound 3 (2.5 μM) and red fluorescent Compound 2 (2 μM) for 12 h at 37° C. In FIG. 9B, bafilomycin A1 (1 μM), a vacuolar H^+ ATPase inhibitor that blocks acidification of endosomes, was added. FIG. 9A is without bafilomyin. Cells were washed with media and imaged by DIC and confocal laser scanning microscopy.
as §2

Jurkat lymphocytes [6] = experiment: Inhibiting endosome acidification, Jurkat cells (bafilomycin A1); format: cell-based, human; settings: bafilomycin A1 1 μM, Compound 3 (2.5 μM) and Compound 2 (2 μM), 12 h, 37° C.
Description: Jurkat lymphocytes (5×10^5) in media (500 μL) were pretreated with bafilomycin A1 (final concentration=1 μM) in DMSO (final [DMSO]=2%) for 1 h. […] After incubation at 37° C. for 12 h, the cells were washed with fresh media (500 μL) and resuspended in fresh media (125 μL) for analysis by confocal microscopy.

CHO cells [7] = experiment: Inhibiting endosome acidification, CHO cells (chloroquine); format: cell-based, Chinese hamster; settings: chloroquine 5 μM, Compound 3 (5 μM) and Compound 2 (8 μM), 24 h
Description: Exponentially growing CHO cells were cultivated on round collagen-coated coverslips (22 mm, BD BioCoat) in a six-well plate (1.2×10^5 cells/well, 2 mL). After 24 h, the media was replaced with fresh media containing chloroquine (final concentration=5 μM) in DMSO (final [DMSO]=1%) and cells were incubated at 37° C. for 1 h. The media was replaced with fresh media containing Compound 3 (5 μM) and Compound 2 (concentration=8 μM) in DMSO (final [DMSO]=1%) with or without chloroquine […] (final concentration=5 μM) in DMSO (final [DMSO]=1%). The cells were incubated at 37° C. for 24 h. The cells were washed with PBS (2×2 mL) prior to analysis by confocal microscopy.

CHO cells [8] = experiment: Dose dependence of endosomal escape quantified by flow cytometry, CHO cells; format: cell-based, Chinese hamster; settings: Compound 3 (5 μM) with increased amounts of Compound 1, or Compound 5 at 8 micromolar, 24 h, 37° C.
Description: (§3) Cellular fluorescence was analyzed by flow cytometry.
(§4) Analyses were performed with a Beckman-Coulter XL-MCL bench-top flow cytometer. Forward-scatter (FS) and side-scatter (SSC) dot plots afforded cellular physical properties of size and granularity that allowed gating of live cells. After gating, 10,000 cells were counted. In studies of endosomal release of fluorescein derivative Compound 6 mediated by Compound 1, the fluorophore was excited at 488 nm with a 15 mW air-cooled argon-ion laser, the emission was split with a 550 nm dichroic and filtered through a 510 nm long pass filter and 530/30-nm band pass filter using the XL-MCL cytometer. The PMT voltage for this instrument was set to 501 for Jurkat cells and 524 for CHO cells.

Jurkat lymphocytes [9] = experiment: Dose dependence of endosomal escape quantified by flow cytometry, Jurkat lymphocytes; format: cell-based, human; settings: Compound 3 (2.5 μM) with increased amounts of Compound 1, or Compound 5 at 8 micromolar, 12 h, 37° C.
Description: as §3, §4

In the case of CC(C)CCC[C@@H](C)[C@H]1CC[C@H]2[C@@H]3CC=C4C[C@@H](NCCCCC(=O)N[C@@H](CCC(=O)O)C(=O)N[C@@H](CCC(=O)O)C(=O)NCCCCCC(=O)NCCCCCC(=O)N[C@@H](CO)C(=O)N[C@@H](CO)C(=O)N[C@@H](C)C(=O)N[C@@H](Cc5c[nH]c6ccccc56)C(=O)N[C@@H](Cc5c[nH]c6ccccc56)C(=O)N[C@@H](CO)C(=O)N[C@@H](Cc5ccc(O)cc5)C(=O)N[C@@H](Cc5c[nH]c6ccccc56)C(=O)N5CCC[C@H]5C(=O)N5CCC[C@H]5C(=O)N[C@H](C(=O)N[C@@H](C)C(N)=O)C(C)C)CC[C@]4(C)[C@H]3CC[C@]12C [Compound 1, N-[6-({6-[(N-{5-(3β-Cholest-5-en-3-ylammonio)pentanoyl}-5-oxidanidyl-5-oxidanylidene-L-norvalyl-5-oxidanidyl-5-oxidanylidene-L-norvalyl)amino]hexanoyl}amino)hexanoyl]-L-seryl-L-seryl-L-alanyl-L-tryptophyl-L-tryptophyl-L-seryl-L-tyrosyl-L-tryptophyl-L-prolyl-L-prolyl-L-valyl-L-alaninamide] ({Pentanoyl(5-NH-cholesteryl)}-EE[Ahx][Ahx]SSAWWSYWPPVA-NH2), the “toxicity to Jurkat lymphocytes” value (Jurkat lymphocytes [1]) is reported as “non-toxic”, the “toxicity (cellular viability)” value (Jurkat lymphocytes [2]) is reported as “non-toxic” and the “toxicity (cellular viability)” value (CHO cells [3]) is reported as “non-toxic”.

For CC(C)CCC[C@@H](C)[C@H]1CC[C@H]2[C@@H]3CC=C4C[C@@H](NCCCCC(=O)N[C@@H](CCC(=O)O)C(=O)N[C@@H](CCCCNC(=O)c5cc(Cl)c(C(=O)O)c(-c6c7cc(Cl)c(=O)c(Cl)c-7oc7c(Cl)c(O)c(Cl)cc67)c5Cl)C(=O)NCCCCCC(=O)NCCCCCC(=O)N[C@@H](CO)C(=O)N[C@@H](CO)C(=O)N[C@@H](C)C(=O)N[C@@H](Cc5c[nH]c6ccccc56)C(=O)N[C@@H](Cc5c[nH]c6ccccc56)C(=O)N[C@@H](CO)C(=O)N[C@@H](Cc5ccc(O)cc5)C(=O)N[C@@H](Cc5c[nH]c6ccccc56)C(=O)N5CCC[C@H]5C(=O)N5CCC[C@H]5C(=O)N[C@H](C(=O)N[C@@H](C)C(N)=O)C(C)C)CC[C@]4(C)[C@H]3CC[C@]12C [Compound 2, N-(6-{[6-({N-{5-(3β-Cholest-5-en-3-ylammonio)pentanoyl}-5-oxidanidyl-5-oxidanylidene-L-norvalyl-N^6-[4-carboxy-2,5-dichloro-3-(2,4,5,7-tetrachloro-6-hydroxy-3-oxo-3H-xanthen-9-yl)benzoyl]-L-lysyl}amino)hexanoyl]amino}hexanoyl)-L-seryl-L-seryl-L-alanyl-L-tryptophyl-L-tryptophyl-L-seryl-L-tyrosyl-L-tryptophyl-L-prolyl-L-prolyl-L-valyl-L-alaninamide] ({Pentanoyl(5-NH-cholesteryl)}-EK(X1)[Ahx][Ahx]SSAWWSYWPPVA-NH2), the “release of green fluorescence of Compound 3 from early/recycling endosomes by the endosome disruptor” value (CHO cells [4]) was “fluorescence was observed in the cytosol and nucleus” and the “release of green fluorescence of Compound 3 from early/recycling endosomes by the endosome disruptor” value (Jurkat lymphocytes [5]) was “endosomal escape”.

CC(C)CCC[C@@H](C)[C@H]1CC[C@H]2[C@@H]3CC=C4C[C@@H](NCCCNC(=O)[C@H](CCC(=O)O)NC(=O)[C@H](CCC(=O)O)NC(=O)CCSSCCNC(=O)c5ccc(-c6c7ccc(=O)cc-7oc7cc(O)ccc67)c(C(=O)O)c5)CC[C@]4(C)[C@H]3CC[C@]12C [Compound 3, (11S,14S)-11-(2-Carboxylatoethyl)-1-[3-carboxylato-4-(6-oxido-3-oxo-3H-xanthen-9-yl)phenyl]-14-[({3-(3β-cholest-5-en-3-ylammonio)propyl}amino)carbonyl]-1,9,12-trioxo-5,6-dithia-2,10,13-triazaheptadecan-17-oate] was tested, and the “release of the fluorophore of the cargo compound when combined with Compound 1 or Compound 2” value (CHO cells [4]) was “released from entrapment in early/recycling endosomes” and the “release of the fluorophore of the cargo compound when combined with Compound 1” value (Jurkat lymphocytes [5]) was “released from entrapment in early/recycling endosomes”.

In the case of CC(C)CCC[C@@H](C)[C@H]1CC[C@H]2[C@@H]3CC=C4C[C@@H](NCCCNC(=O)[C@H](CCC(=O)O)NC(=O)[C@H](CCC(=O)O)NC(=O)CCNC(=O)CCNC(=O)c5ccc(-c6c7ccc(=O)cc-7oc7cc(O)ccc67)c(C(=O)O)c5)CC[C@]4(C)[C@H]3CC[C@]12C [Compound 4, (11S,14S)-11-(2-Carboxylatoethyl)-1-[3-carboxylato-4-(6-oxido-3-oxo-3H-xanthen-9-yl)phenyl]-14-[({3-(3β-cholest-5-en-3-ylammonio)propyl}amino)carbonyl]-1,5,9,12-tetraoxo-2,6,10,13-tetraazaheptadecan-17-oate], the “release of the fluorophore of the cargo compound when combined with Compound 1 or Compound 2” value (CHO cells [4]) is reported as “blocked release of the fluorophore” and the “release of the fluorophore of the cargo compound when combined with Compound 1” value (Jurkat lymphocytes [5]) is reported as “blocked release of the fluorophore”.

CO/C1=C\C(C)=C\[C@@H](C)[C@@H](O)[C@@H](C)C/C(C)=C/C=C/[C@H](OC)[C@@H]([C@@H](C)[C@@H](O)[C@H](C)[C@@]2(O)C[C@@H](O)[C@H](C)[C@@H](C(C)C)O2)OC1=O [bafilomycin A1] was tested, and the “effect of raising endosomal pH on release of the fluorophore (endosomal escape)” value (Jurkat lymphocytes [6]) was “blocked release of the fluorophore; also recorded: retention in endosomes”.

In the case of CCN(CC)CCCC(C)Nc1ccnc2cc(Cl)ccc12 (stereo not drawn) [chloroquine], the “effect of raising endosomal pH on release of the fluorophore” value (CHO cells [7]) is reported as “blocked release of the fluorophore”.

With “Ac-SSAWWSYWPPVA-NH2 [Compound 5, N-Acetyl-L-seryl-L-seryl-L-alanyl-L-tryptophyl-L-tryptophyl-L-seryl-L-tyrosyl-L-tryptophyl-L-prolyl-L-prolyl-L-valyl-L-alaninamide, reference compound]” the “cellular fluorescence (endosomal escape) by flow cytometry” value (CHO cells [8]) was “did not increase fluorescence”, the “cellular fluorescence (endosomal escape) by flow cytometry” value (Jurkat lymphocytes [9]) was “did not increase fluorescence” and the “release of green fluorescence of Compound 3 from early/recycling endosomes by the endosome disruptor” value (CHO cells [4]) was “little effect”. For the same compound, the “release of green fluorescence of Compound 3 from early/recycling endosomes by the endosome disruptor” value (Jurkat lymphocytes [5]) was “little effect”.
